Series [1] addresses T1, aromatase (Homo sapiens, UniProt P11511).
T1 construct: suspension of human placenta microsomes as a source of aromatase enzyme; from tissue; host or cells: human placenta microsomes
T1 sequence (P11511 1-503): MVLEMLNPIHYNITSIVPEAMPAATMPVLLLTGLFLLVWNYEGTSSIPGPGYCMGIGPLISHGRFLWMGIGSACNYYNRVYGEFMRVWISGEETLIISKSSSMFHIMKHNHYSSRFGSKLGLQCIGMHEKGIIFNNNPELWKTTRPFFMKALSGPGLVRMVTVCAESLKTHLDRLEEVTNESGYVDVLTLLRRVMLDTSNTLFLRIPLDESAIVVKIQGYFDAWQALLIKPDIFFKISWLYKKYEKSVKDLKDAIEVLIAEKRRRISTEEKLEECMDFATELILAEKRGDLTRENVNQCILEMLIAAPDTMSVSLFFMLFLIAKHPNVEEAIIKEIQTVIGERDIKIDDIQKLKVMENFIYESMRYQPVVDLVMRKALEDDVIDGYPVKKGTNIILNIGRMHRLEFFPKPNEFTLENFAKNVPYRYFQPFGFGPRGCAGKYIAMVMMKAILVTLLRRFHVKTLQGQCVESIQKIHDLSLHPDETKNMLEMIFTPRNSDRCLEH
As to the kind of experiment: Inhibition of aromatase activity, placenta microsomes, substrate androstenedione 10 nM (Example 3). Type of series: biochemical. Conditions: 10 min. The protocol:
Inhibitor tests were carried out with a suspension of human placenta microsomes as a source of aromatase enzyme. The substrate used in these competitive inhibition tests was androstenedione.
Experimental conditions for enzyme inhibition
enzyme source: placenta microsomes
substrate: androstenedione (10 nM)
tracer: ^3 H-androstenedione
Co-substrate: NADPH-regenerating system
The substrate, ^3 H-androstenedione was incubated in the presence of aromatase enzyme with and without the acid inhibitor. The aromatization of androstenedione to estradiol was measured by the release of ^3 H2 O in the process of aromatization. Aromatase activity in the presence of 9-hydroxy-10(trans)-12(cis)-octadecadienoic acid was compared with that of a control group without this inhibiting additive. Aromatase activity is shown as percent of reaction in table 2.

Series [2] can be described thus: Storage stability of the prepared acid. Type of series: physicochemical.
The nature of series [3]: Effect in the treatment of estrogen-dependent diseases, keto form compared with hydroxy compound.
Series [4] addresses T1, aromatase. The series is described as follows: Inhibition of aromatase activity, placenta microsomes, substrate androstenedione 100 nM (Example 4). The class given is biochemical.

Take `CCCCC/C=C\C=C\C(O)CCCCCCCC(=O)O` (stereo not drawn) [9-hydroxy-10(trans)-12(cis)-octadecadienic acid]: the activity at 1 µg/mL at aromatase [1] (inhibitor 1 mg/l, without inhibitor 100 ± 9.1, read-out: Aromatase Activity (% reaction) with inhibitor) was 94.4 ± 1.2%. Also, the activity at 10 µg/mL at aromatase [1] (inhibitor 10 mg/l, without inhibitor 100 ± 8.1, read-out: Aromatase Activity (% reaction) with inhibitor) was determined as 53.8 ± 3.8%. The activity at 100 µg/mL at aromatase [1] (inhibitor 100 mg/l, without inhibitor 100 ± 5.5, read-out: Aromatase Activity (% reaction) with inhibitor) was 16.2 ± 3.2%. In addition, the storage stability entry in series [2] (even at minus 20° C) is “only storable to a limited extent even at minus 20 °C”.

`CCCCC/C=C\C=C\C(=O)CCCCCCCC(=O)O` [9-oxo-10(trans)-12(cis)-octadecadienic acid]: in series [3], the “effect by comparison with the hydroxy compound” value amounted to 10 fold. Besides, the activity at 1 µg/mL on aromatase [4] (10 min, inhibitor 1 mg/l, androstenedione 100 nM, 10 minutes, average value ± S.D. (n = 3), without inhibitor 100 ± 9.1, read-out: Aromatase activity (% reaction) with inhibitor) turned out to be 58.3 ± 3.6%. Also, at aromatase [4] (10 min, inhibitor 10 mg/l, androstenedione 100 nM, 10 minutes, average value ± S.D. (n = 3), without inhibitor 100 ± 8.1, read-out: Aromatase activity (% reaction) with inhibitor), the activity at 10 µg/mL amounted to 19.3 ± 3.4%. In addition, the activity at 100 µg/mL at aromatase [4] (10 min, inhibitor 100 mg/l, androstenedione 100 nM, 10 minutes, average value ± S.D. (n = 3), without inhibitor 100 ± 5.5, read-out: Aromatase activity (% reaction) with inhibitor) turned out to be 6.2 ± 2.9%. The “inhibition of aromatase (in words)” value against aromatase [4] (Example 4, table 4) was “stronger aromatase inhibiting effect”. In addition, the “aromatase inhibiting effect relative to the acid in hydroxy form” value on aromatase [4] (from tables 2 and 4, displacement with respect to the concentration of the inhibitor) was “about 10 times stronger”. The “stability compared with the product of Example 1” value in series [2] was “equally unstable as the product of Example 1”.
